According to publication PMC5893132, “Selective inhibition of histamine-evoked Ca^2+ signals by compartmentalized cAMP in human bronchial airway smooth muscle cells” (Cell Calcium, 2018):
One block for each molecule: values may come before it.

Columns and labels:
Type in all cases: cell-based, human
[1] = test system: histamine-evoked Ca^2+ signals in hBASMCs; assay: Histamine-evoked Ca2+ signals in populations of fluo-4-loaded hBASMCs; settings: for effect on the sensitivity to histamine: trans Ned-19 1 μM or ryanodine 50 μM, 5 min, HBSS; for effect on histamine-evoked Ca2+ signals: pre-treatment: 8-Br-cGMP, IBMX 20 min, forskolin 10 μM, NKH477 10 μM, butaprost 10 μM, TCS2510 1 μM 5 min
Procedure: (§1) Two methods were used to measure [Ca^2+]i in populations of hBASMCs. For measurements using a FlexStation III plate-reader (Molecular Devices, Sunnyvale, CA, USA), hBASMCs were seeded into 96-well plates (10^4 cells per well). After about 4 days, when the cells were confluent, the medium was replaced with SMGM-2 without serum or growth factor supplements, and the cells were used after a further 24 h. This period in serum-free medium increased by about 2-fold the amplitude of the increases in [Ca^2+]i evoked by histamine (results not shown). Cells were washed with HEPES-buffered saline (HBS: 135 mM NaCl, 5.9 mM KCl, 1.2 mM MgCl2, 1.5 mM CaCl2, 11.6 mM HEPES, 11.5 mM D-glucose, pH 7.3), and loaded with fluo-4 by incubation with fluo-4-AM (2 μM) in HBS (100 μL per well) containing pluronic F127 (0.02%, v/v) and probenecid (2.5 mM). After 1 h at 20 °C, the medium was replaced with HBS (100 μL per well) containing probenecid (2.5 mM). After a further incubation at 20 °C for 1 h, the medium was replaced with HBS (60–80 μL per well) or nominally Ca^2+-free HBS, and the cells were used immediately for experiments at 20 °C. In some experiments, BAPTA (2.5 mM) was added to HBS during the recording; this reduced the free [Ca^2+] of the HBS to ∼120 nM without affecting the pH. Drug additions (20 μL at 4 or 5 times the final concentration) were added automatically. Fluorescence from fluo-4 (excitation 485 nm, emission 525 nm) was recorded at 1.44-s intervals using Softmax Pro 5.4 (Molecular Devices). Fluorescence was calibrated to [Ca^2+]i from: [Ca^2+]i=KDCa×(F−Fmin/Fmax−F) where, KDCa is the equilibrium dissociation constant of fluo-4 for Ca^2+ (345 nM), F is the recorded fluorescence, and Fmin and Fmax are the fluorescence values recorded after addition of triton-X-100 (0.1%, v/v) with either BAPTA (10 mM, Fmin) or CaCl2 (10 mM, Fmax). Although treatment with triton-X-100 releases fluo-4 from cells into the medium, the fluo-4 fluorescence is captured with the same efficiency whether it is trapped within cells or dispersed within the small volume of the wells (unpublished observations). Fmax was determined for each well at the end of an experiment, and the average value was used for each column of 8 wells. Fmin was determined from parallel wells on each plate.
For measurements of [Ca^2+]i using an FDSS 7000 FLIPR (Hamamatsu), hBASMCs were seeded into 384-well plates (8000 cells per well) in 20 μL of SMGM-2 containing 5% serum. After 24 h, the medium was replaced with 15 μL of serum-free SMGM-2, and after a further 6 h the cells were loaded with Ca^2+ indicator by addition of FLIPR calcium 4 assay kit (Molecular Devices) supplemented with probenecid (2.5 mM). The exact composition of this ‘no-wash’ indicator kit is not disclosed by the manufacturer, but it contains fluo-4-AM and components that reduce background fluorescence. The manufacture’s stock solution was diluted 10-fold into HBSS containing BSA (0.1%, w/v) and HEPES (20 mM); 5 μL of this solution was then added to each well (containing 15 μL of serum-free SMGM-2). After 2 h at 37 °C in humidified air containing 5% CO2, the plate was used for experiments at 20 °C. Most additions (5 μL) were prepared in HBSS supplemented with HEPES (20 mM) and BSA (0.1%, w/v). For more prolonged incubations, drugs were diluted in the initial loading medium (to avoid changes in dye-loading during the ‘no wash’ protocol). Fluorescence signals (excitation at 480 nm, emission at 540 nm) were calibrated to [Ca^2+]i after measurement of Fmin and Fmax uniquely for each well, using a KDCa = 345 nM.
All concentration-effect relationships were determined by addition of different drug concentrations to individual wells in the same multi-well plate, rather than by sequential additions to the same well. […]

[2] = test system: Ca^2+ signals evoked by histamine, bradykinin or carbachol in hBASMCs; assay: GPCR-evoked Ca2+ signals (histamine, bradykinin or carbachol, stated together) in hBASMCs; settings: HBSS; for whether the inhibitor substantially affected the Ca2+ signals evoked by histamine, bradykinin or carbachol: ryanodine 50 μM or trans Ned-19 1 μM, 5 min
Procedure: as §1, with “This period in serum-free medium increased by about 2-fold the amplitude of the increases in [Ca^2+]i evoked by histamine (results not shown).” left out, “In some experiments, BAPTA (2.5 mM) was added to HBS during the recording; this reduced the free [Ca^2+] of the HBS to ∼120 nM without affecting the pH.” left out, “Although treatment with triton-X-100 releases fluo-4 from cells into the medium, the fluo-4 fluorescence is captured with the same efficiency whether it is trapped within cells or dispersed within the small volume of the wells (unpublished observations).” left out
(§2) For measurements of [Ca^2+]i using an FDSS 7000 FLIPR (Hamamatsu), hBASMCs were seeded into 384-well plates (8000 cells per well) in 20 μL of SMGM-2 containing 5% serum. […] The exact composition of this ‘no-wash’ indicator kit is not disclosed by the manufacturer, but it contains fluo-4-AM and components that reduce background fluorescence. […]

[3] = test system: intracellular cAMP in hBASMCs; assay: Intracellular cAMP in hBASMCs by mass spectrometry; settings: IBMX 20 min; MS
Procedure: These methods were modified from. Confluent cultures of hBASMCs in 48-well plates were serum-deprived (6–24 h) and the medium was then replaced with HBSS (300 μL) containing HEPES (5 mM) and BSA (0.1%, w/v). Cells were stimulated at 20 °C, and reactions were terminated by aspiration of the medium and addition of acetonitrile (170 μL) containing dibutyryl cAMP (0.5 μM, to provide an internal standard). The plates were centrifuged (1500 xg, 15 min, 4 °C), supernatants (158 μL) were transferred to a 96-well, glass-coated plate (Thermo Scientific), and aqueous NH4HCO3 (pH 9.4, 93 μL) was added to each sample. After mixing and centrifugation (1500 xg, 15 min, 4 °C), samples were stored at 4 °C before analysis. Samples were analyzed by liquid chromatography tandem mass spectrometry (LC–MS/MS) using a Waters Acquity UPLC and a Sciex 5500 mass spectrometer equipped with an electrospray ionization source. ATP, ADP, AMP and cAMP were analyzed using a ZIC-pHILIC polymeric column (5-μm particle size, […]) maintained at 35 °C. Calibration standards were prepared in the lysis medium containing the internal standard, dibutyryl cAMP (0.5 μM). […] Samples were detected using multiple reaction monitoring in negative ion mode using the following parent-to-daughter mass transitions: cAMP m/z 327.9 → 133.9 (DP −100 V, CE −33 eV), AMP m/z 345.9 → 134.0 (DP −100 V, CE −50 eV), ADP m/z 426.0 → 134.0 (DP −100 V, CE −30 eV), ATP m/z 505.9 → 408.0 (DP −100 V, CE −35 eV), and internal standard dibutyryl cAMP m/z 468.1 → 175.0 (DP −100 V, CE −35 eV). Concentration-effect relationships were fitted to logistic equations for each experiment using GraphPad Prism (version 5, GraphPad Software, La Jolla, CA, USA), from which half-maximally effective drug concentrations (EC50), maximal responses, and Hill slopes were determined. For statistical analyses, maximal responses, Hill slopes and pEC50 (-logEC50) or pIC50 (-log of the half-maximal inhibitory concentration, IC50) values determined for individual experiments were pooled for statistical analysis. […]

[4] = test system: bradykinin-evoked Ca^2+ signals in hBASMCs; assay: Bradykinin-evoked Ca2+ signals in populations of fluo-4-loaded hBASMCs
Procedure: as §1, with “This period in serum-free medium increased by about 2-fold the amplitude of the increases in [Ca^2+]i evoked by histamine (results not shown).” left out, “In some experiments, BAPTA (2.5 mM) was added to HBS during the recording; this reduced the free [Ca^2+] of the HBS to ∼120 nM without affecting the pH.” left out, “Although treatment with triton-X-100 releases fluo-4 from cells into the medium, the fluo-4 fluorescence is captured with the same efficiency whether it is trapped within cells or dispersed within the small volume of the wells (unpublished observations).” left out
as §2

[5] = test system: carbachol-evoked Ca^2+ signals in hBASMCs; assay: Carbachol-evoked Ca2+ signals in populations of fluo-4-loaded hBASMCs
Procedure: as §1, with “This period in serum-free medium increased by about 2-fold the amplitude of the increases in [Ca^2+]i evoked by histamine (results not shown).” left out, “In some experiments, BAPTA (2.5 mM) was added to HBS during the recording; this reduced the free [Ca^2+] of the HBS to ∼120 nM without affecting the pH.” left out, “Although treatment with triton-X-100 releases fluo-4 from cells into the medium, the fluo-4 fluorescence is captured with the same efficiency whether it is trapped within cells or dispersed within the small volume of the wells (unpublished observations).” left out
as §2

[6] = test system: intracellular Ca^2+ stores of hBASMCs; assay: Ca2+ content of intracellular stores, by ionomycin in Ca2+-free HBS; settings: isoproterenol, forskolin 10 μM, 5 min, 2-APB 5 min, higher concentrations needed than for inhibition of GPCR-evoked signals
L-type Ca^2+ channels = assay: Depolarization (K+)-evoked increase in [Ca2+]i in single fura-2-loaded hBASMCs; settings: nimodipine 10 μM, 5 min; extracellular Na+ replaced with K+ 140 mM; all 44 cells, mean ± SD, single experiment; 50 ± 11 nM in absence
[7] = test system: LPA-evoked Ca^2+ signals in hBASMCs; assay: LPA-evoked Ca2+ signals in populations of fluo-4-loaded hBASMCs; settings: PTX 100 ng·mL^−1, 24 h
Procedure: Two methods were used to measure [Ca^2+]i in populations of hBASMCs. For measurements using a FlexStation III plate-reader (Molecular Devices, Sunnyvale, CA, USA), hBASMCs were seeded into 96-well plates (10^4 cells per well). After about 4 days, when the cells were confluent, the medium was replaced with SMGM-2 without serum or growth factor supplements, and the cells were used after a further 24 h. […] Cells were washed with HEPES-buffered saline (HBS: 135 mM NaCl, 5.9 mM KCl, 1.2 mM MgCl2, 1.5 mM CaCl2, 11.6 mM HEPES, 11.5 mM D-glucose, pH 7.3), and loaded with fluo-4 by incubation with fluo-4-AM (2 μM) in HBS (100 μL per well) containing pluronic F127 (0.02%, v/v) and probenecid (2.5 mM). […] Fluorescence from fluo-4 (excitation 485 nm, emission 525 nm) was recorded at 1.44-s intervals using Softmax Pro 5.4 (Molecular Devices). Fluorescence was calibrated to [Ca^2+]i from: [Ca^2+]i=KDCa×(F−Fmin/Fmax−F) where, KDCa is the equilibrium dissociation constant of fluo-4 for Ca^2+ (345 nM), F is the recorded fluorescence, and Fmin and Fmax are the fluorescence values recorded after addition of triton-X-100 (0.1%, v/v) with either BAPTA (10 mM, Fmin) or CaCl2 (10 mM, Fmax). […] Fmax was determined for each well at the end of an experiment, and the average value was used for each column of 8 wells. Fmin was determined from parallel wells on each plate. […]

Molecule: COc1ccc([C@H]2N[C@H](C(=O)O)Cc3c2[nH]c2ccccc32)cc1CN1CCN(c2ccccc2F)CC1 (relative stereo) [trans Ned-19, trans-Ned-19]
effect on the sensitivity to histamine [1]: slightly reduced
whether the inhibitor substantially affected the Ca2+ signals evoked by histamine, bradykinin or carbachol [2]: Neither

Molecule: CC(C)Cn1c(=O)n(C)c(=O)c2[nH]cnc21 [IBMX, 3-isobutyl-1-methylxanthine]
effect on histamine-evoked Ca2+ signals [1]: an inhibition of histamine-evoked Ca^2+ signals
effect on intracellular cAMP [3]: an accumulation of intracellular cAMP

IC50 ([1]; Homo sapiens, histamine 10 μM, pre-incubation 30 min, n = 3, read-out: pIC50 for inhibition of the Ca2+ signals evoked by histamine (converted)): 22.9 µM
IC50 ([4]; Homo sapiens, bradykinin 1 nM, pre-incubation 30 min, n = 3, read-out: pIC50 for inhibition of the Ca2+ signals evoked by bradykinin (converted)): 33.9 µM
IC50 ([5]; Homo sapiens, carbachol 10 μM, pre-incubation 30 min, n = 3, read-out: pIC50 for inhibition of the Ca2+ signals evoked by carbachol (converted)): 39.8 µM
Molecule: CCCCCCCCCCCCCCCCCCOCC(COP(=O)([O-])OCC[N+](C)(C)C)OC (centres unmarked) [edelfosine]

Molecule: C=C[C@@]1(C)CC(=O)[C@]2(O)[C@@]3(C)[C@@H](O)CCC(C)(C)[C@@H]3[C@H](O)[C@H](OC(C)=O)[C@@]2(C)O1 [forskolin]
effect on histamine-evoked Ca2+ signals [1]: mimicked the effect of isoproterenol
effect on the Ca2+ content of the intracellular stores [6]: Neither isoproterenol nor forskolin (10 μM, 5 min) affected

Molecule: COCCOC(=O)C1=C(C)NC(C)=C(C(=O)OC(C)C)C1c1cccc([N+](=O)[O-])c1 (centres unmarked) [nimodipine]
peak increase in [Ca2+]i on depolarization in presence of inhibitor (L-type Ca^2+ channels): 20 ± 14 nM
effect on the increases in [Ca2+]i evoked by histamine, bradykinin and carbachol ([2]; added 5 min before stimulus, nimodipine 10 μM, 2-APB indicated concentrations): unaffected

Molecule: CC(C)[C@@]1(O)[C@@H](OC(=O)c2ccc[nH]2)[C@@]2(O)[C@@]3(C)C[C@]4(O)O[C@@]5([C@H](O)[C@@H](C)CC[C@]35O)[C@@]2(O)[C@@]14C [ryanodine]
effect on the sensitivity to histamine [1]: slightly reduced
whether the inhibitor substantially affected the Ca2+ signals evoked by histamine, bradykinin or carbachol [2]: Neither

Molecule: Pertussis toxin [PTX]
effect of pre-treatment on the Ca2+ signals evoked by histamine ([1]; PTX 100 ng·mL^−1, 24 h): had no effect
effect of pre-treatment on the Ca2+ signals evoked by bradykinin ([4]; PTX 100 ng·mL^−1, 24 h): had no effect
effect of pre-treatment on maximal amplitude of and sensitivity of the Ca2+ signals evoked by carbachol ([5]; PTX 100 ng·mL^−1, 24 h): significantly reduced
effect of pre-treatment on maximal amplitude of and sensitivity of the Ca2+ signals evoked by LPA [7]: significantly reduced
